SMILES strings stand for the structures.

The assay addresses T1, α4β7 integrin (Homo sapiens, UniProt P13612+P26010).
T1 construct: monitoring the capture of α4β7 integrin expressing cells on a recombinant MadCAM-1 extracellular domain-coated plate; endogenous in cells; host or cells: RPMI8866 cells
T1 sequence (P13612 34-1032): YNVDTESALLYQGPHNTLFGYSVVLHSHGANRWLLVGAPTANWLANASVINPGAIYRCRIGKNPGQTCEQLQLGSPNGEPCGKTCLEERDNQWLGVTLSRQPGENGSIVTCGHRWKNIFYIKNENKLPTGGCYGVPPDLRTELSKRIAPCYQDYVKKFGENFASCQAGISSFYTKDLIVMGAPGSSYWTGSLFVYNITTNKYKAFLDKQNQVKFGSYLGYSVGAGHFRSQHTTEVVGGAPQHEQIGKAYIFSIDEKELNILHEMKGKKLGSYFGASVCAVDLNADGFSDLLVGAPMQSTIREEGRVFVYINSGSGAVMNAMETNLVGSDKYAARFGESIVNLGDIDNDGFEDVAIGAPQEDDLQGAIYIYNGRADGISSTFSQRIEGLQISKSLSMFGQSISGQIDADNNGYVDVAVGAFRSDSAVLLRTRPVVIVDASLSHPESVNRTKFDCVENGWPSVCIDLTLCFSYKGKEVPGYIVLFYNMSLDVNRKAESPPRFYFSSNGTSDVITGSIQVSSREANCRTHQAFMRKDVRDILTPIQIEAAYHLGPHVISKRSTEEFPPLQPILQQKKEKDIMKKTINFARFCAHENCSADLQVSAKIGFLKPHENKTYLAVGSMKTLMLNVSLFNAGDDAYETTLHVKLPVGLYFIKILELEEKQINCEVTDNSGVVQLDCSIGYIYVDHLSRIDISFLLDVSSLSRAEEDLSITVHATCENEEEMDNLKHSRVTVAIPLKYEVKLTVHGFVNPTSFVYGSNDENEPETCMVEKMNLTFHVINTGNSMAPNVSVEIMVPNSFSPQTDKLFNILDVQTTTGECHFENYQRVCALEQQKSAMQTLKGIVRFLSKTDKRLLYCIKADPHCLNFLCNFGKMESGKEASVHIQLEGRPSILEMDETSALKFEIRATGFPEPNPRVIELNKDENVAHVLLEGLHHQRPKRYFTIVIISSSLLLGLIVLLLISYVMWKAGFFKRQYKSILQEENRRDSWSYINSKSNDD
T1 sequence (P26010 20-798): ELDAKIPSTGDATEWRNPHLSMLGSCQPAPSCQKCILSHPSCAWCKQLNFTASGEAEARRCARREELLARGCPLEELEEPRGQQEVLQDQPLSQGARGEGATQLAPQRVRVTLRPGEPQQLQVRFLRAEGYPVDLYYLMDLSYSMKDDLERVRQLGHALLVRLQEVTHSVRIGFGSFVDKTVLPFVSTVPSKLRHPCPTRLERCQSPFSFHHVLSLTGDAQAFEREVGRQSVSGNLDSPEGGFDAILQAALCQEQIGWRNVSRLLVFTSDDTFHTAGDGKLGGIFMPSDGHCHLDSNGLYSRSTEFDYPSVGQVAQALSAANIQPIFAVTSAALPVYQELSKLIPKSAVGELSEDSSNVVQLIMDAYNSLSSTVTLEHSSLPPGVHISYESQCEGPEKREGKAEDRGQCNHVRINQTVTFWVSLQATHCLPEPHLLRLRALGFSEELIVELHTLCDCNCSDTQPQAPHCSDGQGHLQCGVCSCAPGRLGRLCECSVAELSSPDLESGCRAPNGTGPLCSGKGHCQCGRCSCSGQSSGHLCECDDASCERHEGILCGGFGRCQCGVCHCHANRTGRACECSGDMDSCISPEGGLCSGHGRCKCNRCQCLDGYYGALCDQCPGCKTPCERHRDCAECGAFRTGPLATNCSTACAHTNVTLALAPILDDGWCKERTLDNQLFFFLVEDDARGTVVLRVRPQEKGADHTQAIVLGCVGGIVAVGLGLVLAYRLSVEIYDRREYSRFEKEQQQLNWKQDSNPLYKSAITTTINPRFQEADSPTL
Kind of assay: α4β7 Integrin Cell Capture Assay. It counts as cell-based. Particulars: capture of α4β7 integrin expressing RPMI8866 cells on recombinant MadCAM-1 extracellular domain-coated plate; DMEM+0.5% FBS+0.5 mM MnCl2; read-out: EC50 α4β7. The procedure:
α4β7 Integrin Cell Capture Assay
The potency of inhibitors in preventing α4β7 integrin interaction with MadCAM-1 was measured by monitoring the capture of α4β7 integrin expressing cells on a recombinant MadCAM-1 extracellular domain-coated plate.
384-Well plates (Corning 3702) were coated with MadCAM-1 extracellular domain by dispensing 20 μL of MAdCAM-1 at 1.0 μg/mL per well and incubating overnight at 4° C. The plates were then washed with PBS and blocked with 3% BSA for 2 hours before being washed again.
RPMI8866 cells were spun down and re-suspended in assay medium (DMEM+0.5% FBS+0.5 mM MnCl2) at a density of 0.5×10^6 cells/mL. The cells were then dispensed (60 μL/well) to a 384-well plate (Greiner 781280) that was previously spotted with 60 nL of test compound per well. The plates were incubated at 37° C. for 1 hour. 50 μL of cells were transferred to the blocked, MadCAM-1-coated plates and incubated for 30 minutes at 37° C. 10 μL of 12% glutaraldehyde containing Hoechst 33342 (0.06 mg/mL) was added to the cells (2% glutaraldehyde and 0.01 mg/mL final concentrations). The plates were incubated for 90 minutes at room temperature. The plates were then washed 3 times with 70 μL of PBS per well and imaged on a Cellomics ArrayScan instrument. The cells that were bound to the plate were counted and plotted against the compound concentration to determine the EC50 of the test compounds.

In the case of `CCOCc1cc(OC)c(-c2ccc(C[C@H](NC(=O)c3c(F)cc(NS(=O)(=O)c4ccc(-c5ccnc(F)c5)cc4)cc3F)C(=O)O)c3cnn(C)c23)c(OC)c1` (single isomer, unassigned) [Example 147], the EC50 turned out to be 0.4 nM. Consider `CCOCc1cc(OC)c(-c2ccc(C[C@@H](NC(=O)c3c(F)cc(NS(=O)(=O)c4ccc(-c5ccnc(F)c5)cc4)cc3F)C(=O)O)c3cnn(C)c23)c(OC)c1` (single isomer, unassigned) [Example 148], for which the EC50 came out at 3.6 nM. Regarding `CCOCc1cc(OC)c(-c2ccc(C[C@H](NC(=O)c3c(F)cc(NS(=O)(=O)c4ccc(-c5ccnc(F)c5)cc4)cc3F)C(=O)O)c3ccncc23)c(OC)c1` (single isomer, unassigned) [Example 161], the EC50 amounted to 0.5 nM. In the case of `CCOCc1cc(OC)c(-c2ccc(C[C@@H](NC(=O)c3c(F)cc(NS(=O)(=O)c4ccc(-c5ccnc(F)c5)cc4)cc3F)C(=O)O)c3ccncc23)c(OC)c1` (single isomer, unassigned) [Example 162] it was 1.7 nM. In the case of `COc1cccc(OC)c1-c1ccc(C[C@H](NC(=O)c2c(F)cc(NS(=O)(=O)c3ccc(-n4cncn4)cc3)cc2F)C(=O)O)c2ccncc12` (single isomer, unassigned) [Example 164] it was 1.3 nM. `COc1cccc(OC)c1-c1ccc(C[C@@H](NC(=O)c2c(F)cc(NS(=O)(=O)c3ccc(-n4cncn4)cc3)cc2F)C(=O)O)c2ccncc12` (single isomer, unassigned) [Example 165]: the EC50 came out at 37.8 nM. In the case of `O=C(N[C@@H](Cc1ccc(-c2c(Cl)cc(F)cc2Cl)c2cccnc12)C(=O)O)c1c(F)cccc1F` [Example 1, (S)-3-(5-(2,6-dichloro-4-fluorophenyl)quinolin-8-yl)-2-(2,6-difluorobenzamido)propanoic acid] it was 210 nM; in that of `COc1cccc(F)c1C(=O)N[C@@H](Cc1ccc(-c2c(Cl)cc(F)cc2Cl)c2cccnc12)C(=O)O` [Example 2, (S)-3-(5-(2,6-dichloro-4-fluorophenyl)quinolin-8-yl)-2-(2-fluoro-6-methoxybenzamido)propanoic acid], 417 nM. The same measure for `O=C(N[C@@H](Cc1ccc(-c2c(Cl)cc(F)cc2Cl)c2cccnc12)C(=O)O)c1c(F)cc(N[C@H](c2ccccc2)C(F)(F)F)cc1F` [Example 3, (S)-3-(5-(2,6-dichloro-4-fluorophenyl)quinolin-8-yl)-2-(2,6-difluoro-4-(((R)-2,2,2-trifluoro-1-phenylethyl)amino)benzamido)propanoic acid]: 393 nM; for `CS(=O)(=O)Nc1cc(F)c(C(=O)N[C@@H](Cc2ccc(-c3c(Cl)cc(F)cc3Cl)c3cccnc23)C(=O)O)c(F)c1` [Example 4, (S)-3-(5-(2,6-dichloro-4-fluorophenyl)quinolin-8-yl)-2-(2,6-difluoro-4-(methylsulfonamido)benzamido)propanoic acid]: 26 nM; for `O=C(N[C@@H](Cc1ccc(-c2c(Cl)cc(F)cc2Cl)c2cccnc12)C(=O)O)c1c(Cl)cccc1Cl` [Example 7, (S)-3-(5-(2,6-dichloro-4-fluorophenyl)quinolin-8-yl)-2-(2,6-dichlorobenzamido)propanoic acid]: 522 nM. In the case of `Cc1c(-c2ccc(C[C@H](NC(=O)c3c(Cl)cccc3Cl)C(=O)O)c3ncccc23)c(=O)n(C)c2ccc(F)cc12` [Example 10, (S)-2-(2,6-dichlorobenzamido)-3-(6-fluoro-1,4-dimethyl-2-oxo-1,2-dihydro-[3,5′-biquinolin]-8′-yl)propanoic acid] it was 1.1 nM. As for `COc1cc(F)cnc1-c1ccc(C[C@H](NC(=O)c2c(Cl)cccc2Cl)C(=O)O)c2ncccc12` [Example 13, (S)-2-(2,6-dichlorobenzamido)-3-(5-(5-fluoro-3-methoxypyridin-2-yl)quinolin-8-yl)propanoic acid], the EC50 was 66.9 nM.

As to `O=C(N[C@@H](Cc1ccc(-c2cccc3scnc23)c2cccnc12)C(=O)O)c1c(Cl)cccc1Cl` [Example 14, (S)-3-(5-(benzo[d]thiazol-4-yl)quinolin-8-yl)-2-(2,6-dichlorobenzamido) propanoic acid], the EC50 was found to be 57.7 nM.

As to `O=C(N[C@@H](Cc1ccc(-c2nccnc2C(F)(F)F)c2cccnc12)C(=O)O)c1c(Cl)cccc1Cl` [Example 15, (S)-2-(2,6-dichlorobenzamido)-3-(5-(3-(trifluoromethyl)pyrazin-2-yl)quinolin-8-yl)propanoic acid], the EC50 worked out at 85 nM. In the case of `Cc1cc(C(F)(F)F)c(-c2ccc(C[C@H](NC(=O)c3c(Cl)cccc3Cl)C(=O)O)c3ncccc23)nn1` [Example 16, (S)-2-(2,6-dichlorobenzamido)-3-(5-(6-methyl-4-(trifluoromethyl)pyridazin-3-yl)quinolin-8-yl)propanoic acid] it was 144 nM.

As to `Cn1cc(-c2ccc(C[C@H](NC(=O)c3c(Cl)cccc3Cl)C(=O)O)c3ncccc23)c(C(F)(F)F)n1` [Example 17, (S)-2-(2,6-dichlorobenzamido)-3-(5-(1-methyl-3-(trifluoromethyl)-1H-pyrazol-4-yl)quinolin-8-yl)propanoic acid], the EC50 was 356 nM. The same measure for `Cc1c(-c2ccc(C[C@H](NC(=O)c3c(Cl)cccc3Cl)C(=O)O)c3ncccc23)c(C(F)(F)F)nn1C` [Example 18, (S)-2-(2,6-dichlorobenzamido)-3-(5-(1,5-dimethyl-3-(trifluoromethyl)-1H-pyrazol-4-yl)quinolin-8-yl)propanoic acid]: 416 nM.

`Cn1cc(F)cc(-c2ccc(C[C@H](NC(=O)c3c(Cl)cccc3Cl)C(=O)O)c3ncccc23)c1=O` [Example 19, (S)-2-(2,6-dichlorobenzamido)-3-(5-(5-fluoro-1-methyl-2-oxo-1,2-dihydropyridin-3-yl)quinolin-8-yl)propanoic acid]: the EC50 worked out at 26.3 nM. As for `O=C(N[C@@H](Cc1ccc(-c2cccc3c2COCC3)c2cccnc12)C(=O)O)c1c(Cl)cccc1Cl` [Example 20, (S)-2-(2,6-dichlorobenzamido)-3-(5-(isochroman-8-yl)quinolin-8-yl)propanoic acid], the EC50 was determined as 374 nM. Turning to `Cn1c(=O)c(-c2ccc(C[C@H](NC(=O)c3c(Cl)cccc3Cl)C(=O)O)c3ncccc23)cc2ccccc21` [Example 21, (S)-2-(2,6-dichlorobenzamido)-3-(1-methyl-2-oxo-1,2-dihydro-[3,5′-biquinolin]-8′-yl)propanoic acid], the concentration giving a half-maximal response (EC50) was found to be 5.8 nM.
